Where two headings read alike, the source gives them in different places.
How the values were obtained:
human cancer cell lines = assay: Cancer cell direct cytotoxicity assay, panel statement; format: cell-based; conditions: panel of human cancer cell lines
Protocol: (§1) Bystander activity of ADCs was evaluated using Renca cancer cells and THP1-Dual™ cells (InvivoGen) which contain an IRF-Lucia luciferase reporter. Cells were cultured in RPMI-1640 (Gibco) with 10% heat-inactivated fetal bovine serum, Pen-Strep (100 U/ml-100 μg/ml, Gibco), HEPES (10 mM, Gibco), sodium pyruvate (1 mM, Gibco), MEM non-essential amino acids (1×, Gibco), GlutaMAX (1×, Gibco), and beta-mercaptoethanol (55 μM, Gibco). Renca cells were plated in a 96-well flat bottom tissue culture-treated clear polystyrene plate (Corning Costar #3596) at 50,000 cells per well in 100 μL. On the day following the initial plating, 50,000 THP1-Dual™ cells were added to each well with the indicated concentration of ADC in a total volume of 200 μL. Supernatant was harvested at 48 hours post addition of the THP1-Dual™ cells. To measure Lucia reporter signal, 10 μL of supernatant was combined with 40 μL of QUANTI-Luc™ Luminescence assay reagent (Invivogen PN: rep-qlc1) in a 96-well clear flat bottom tissue culture-treated black polystyrene plate (Corning Costar PN: 3603) and read on a Perkin Elmer Envision plate reader. In some experiments, HEK 293T cells engineered to express a murine protein typically expressed by immune cells (target antigen C— an immune cell antigen) were plated as above instead of Renca tumor cells. Cancer Cell Direct Cytotoxicity Assay
Cancer cells were counted and plated in 40 μL complete growth media in 384-well, white-walled tissue culture treated plates (Corning). Cell plates were incubated at 37° C. and with 5% CO2 overnight to allow the cells to equilibrate. […] The luminescence of the samples was measured using an EnVision Multimode plate reader (Perkin Elmer, Waltham, MA). […]
Compound 12a was conjugated to both targeted and non-binding antibodies using a variety of non-cleavable linkers (12, 17, 19-24) and the resulting ADCs were assessed for their ability to activate THP1-Dual™ reporter cells. […] We also evaluated the ability of these linkers to directly kill cancer cells when conjugated to targeted mAbs binding tumor antigen A or antigen B (CD30).

786-O = assay: Cancer cell direct cytotoxicity assay (CellTiter-Glo), 786-O; format: cell-based; conditions: Homo sapiens, 786-0, 96 h, free compound, read-out: Compound X50
Protocol: as §1
(§2) Cancer cells were counted and plated in 40 μL complete growth media in 384-well, white-walled tissue culture treated plates (Corning). Cell plates were incubated at 37° C. and with 5% CO2 overnight to allow the cells to equilibrate. Stock solutions containing ADCs or free drugs were serially diluted in RPMI-1640+20% fetal bovine serum (FBS). 10 μL of each concentration were then added to each cell plate in duplicate. Cells were then incubated at 37° C. and with 5% CO2 for 96 hours, upon which, the cell plates were removed from the incubator and allowed to cool to room temperature for 30 minutes prior to analysis. […] The luminescence of the samples was measured using an EnVision Multimode plate reader (Perkin Elmer, Waltham, MA). […]

MDAMB231 = assay: Cancer cell direct cytotoxicity assay (CellTiter-Glo), MDAMB231; format: cell-based; conditions: Homo sapiens, MDA-MB-231; MDAMB231, 96 h, free compound; read-out: Compound X50
Protocol: as §1, §2

SU-DHL-4 = assay: Cancer cell direct cytotoxicity assay (CellTiter-Glo), SU-DHL-4; format: cell-based; conditions: Homo sapiens; SU-DHL-4, 96 h, free compound; read-out: Compound X50
Protocol: as §1, §2

BxPC3 = assay: Cancer cell direct cytotoxicity assay (CellTiter-Glo), BxPC3; format: cell-based; conditions: Homo sapiens, BXPC-3; BxPC3, 96 h, free compound; read-out: Compound X50
Protocol: as §1, §2

L540cy = assay: Cancer cell direct cytotoxicity assay (CellTiter-Glo), L540cy; format: cell-based; conditions: Homo sapiens, 96 h, free compound, read-out: Compound X50
Protocol: as §1, §2

[1] = tested on: THP1-Dual™ reporter cells; assay: THP1-Dual cell reporter assay (IRF-Lucia luciferase reporter); format: cell-based, human
Summary of the method: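 THP1-Dual monocytic cells (~100,000/well) were exposed to compound for 24 h (ADCs 48 h). Secreted IRF-driven Lucia luciferase in the supernatant was quantified by QUANTI-Luc luminescence.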

DELBVR = assay: Cancer cell direct cytotoxicity assay (CellTiter-Glo), DELBVR; format: cell-based; conditions: Homo sapiens, 96 h, free compound, read-out: Compound X50
Protocol: as §1, §2

MOLM-13 = assay: Cancer cell direct cytotoxicity assay (CellTiter-Glo), MOLM-13; format: cell-based; conditions: Homo sapiens; MOLM-13, 96 h, free compound; read-out: Compound X50
Protocol: as §1, §2

DEL = assay: Cancer cell direct cytotoxicity assay (CellTiter-Glo), DEL; format: cell-based; conditions: Homo sapiens, 96 h, free compound, read-out: Compound X50
Protocol: as §1, §2

A2058 = assay: Cancer cell direct cytotoxicity assay (CellTiter-Glo), A2058; format: cell-based; conditions: Homo sapiens; A2058, 96 h, free compound; read-out: Compound X50
Protocol: as §1, §2

Ls174T = assay: Cancer cell direct cytotoxicity assay (CellTiter-Glo), Ls174T; format: cell-based; conditions: Homo sapiens, 96 h, free compound, read-out: Compound X50
Protocol: as §1, §2

Karpas299 = assay: Cancer cell direct cytotoxicity assay (CellTiter-Glo), Karpas299; format: cell-based; conditions: Homo sapiens, KARPAS-299; Karpas299, 96 h, free compound; read-out: Compound X50
Protocol: as §1, §2

[2] = In vivo cytokine assay, plasma of Renca tumor-bearing mice; design: species or system mouse
Protocol: Cytokines were measured in mouse plasma harvested at 3, 6, 24, or 48 hours after treatment with compounds or ADCs using a Milliplex MAP mouse cytokine/chemokine magnetic bead panel assay kit (MCYTOMAG-70k custom 11-plex kit: MCP1, MIP1α, MIP1β, TNFα, IFNγ, IL-10, IL-12p70, IL-6, IL-1β, IP10, RANTES) and analyzed using a Luminex™ MAGPIX™ Instrument System. Values that were outside of the standard curve range (<3.2 or […]) were excluded from calculation of the mean values.

Renca cancer cells = assay: Renca tumor model, in vivo anti-tumor activity and weight change; conditions: Renca tumor-bearing mice
Protocol: In some experiments, Renca tumor cells were engineered to express the indicated murine or human target antigen.
When tumor volumes reached 100 mm^3, the mice were dosed with either compounds or ADCs by intraperitoneal or intravenous injection at the indicated dosing schedule and tumor volumes were monitored twice weekly. Compounds were formulated in 40% PEG400 in saline.
A syngeneic system was used to assess the ability of the STING agonist ADCs to induce immune responses in vivo and drive an anti-tumor immune response. The Renca system is a subcutaneous, mouse renal adenocarcinoma model. Female Balb/c mice were implanted with 2×10^6 Renca cells subcutaneously in the flank on day 0. When mean tumor size of 100 mm^3 (measured by using the formula Volume (mm^3)=0.5*Length*Width^2 where length is the longer dimension) was reached mice were randomized into treatment groups of ≥5 mice per group. Animals were then treated intraperitoneally (ADCs or compounds) or intravenously (compounds) with the indicated treatment every 7 days, for 3 doses total (or as indicated). Tumor length and width and the weight of the animals was measured throughout the study and tumor volume was calculated using the formula above. Animals were followed until the tumor volume reached ˜1000 mm^3; animals were then euthanized.

[3] = Renca tumor-bearing mice, 3 h, 1.86 mg/kg
[4] = Renca tumor-bearing mice, 6 h, 1.86 mg/kg
[5] = Renca tumor-bearing mice, 24 h, 1.86 mg/kg

CCn1nc(C)cc1C(=O)Nc1nc2cc(C(N)=O)cc(OC)c2n1C/C=C/Cn1c(NC(=O)c2cc(C)nn2CC)nc2cc(C(N)=O)cc(OCCCN(C)C(=O)CCN3C(=O)CC(SC[C@H](N)C(=O)O)C3=O)c21 (stereo partly drawn) [Compound 16, S-(1-(3-((3-((5-carbamoyl-1-((E)-4-(5-carbamoyl-2-(1-ethyl-3-methyl-1H-pyrazole-5-carboxamido)-7-methoxy-1H-benzo[d]imidazol-1-yl)but-2-en-1-yl)-2-(1-ethyl-3-methyl-1H-pyrazole-5-carboxamido)-1H-benzo[d]imidazol-7-yl)oxy)propyl)(methyl)amino)-3-oxopropyl)-2,5-dioxopyrrolidin-3-yl)-L-cysteine]
direct cytotoxic activity on cancer cell lines (human cancer cell lines): demonstrated direct cytotoxic activity on a subset of cancer cell lines
IC50 (786-O): > 1000 nM
IC50 (MDAMB231): > 1000 nM
IC50 (SU-DHL-4): > 1000 nM
IC50 (BxPC3): > 1000 nM
IC50 (L540cy): 29 nM
EC50 ([1]; Homo sapiens, THP1-Dual, 24 h, free compounds, 24 h, Lucia reporter signal; read-out: EC50): 34 nM
EC50 ([1]; free compounds, 24 h, Lucia reporter signal; read-out: EC50): 52 nM
IC50 (DELBVR): 7 nM
IC50 (MOLM-13): 27 nM
IC50 (DEL): 4 nM
IC50 (A2058): > 1000 nM
IC50 (Ls174T): > 1000 nM
IC50 (Karpas299): > 1000 nM

CCn1nc(C)cc1C(=O)Nc1nc2cc(C(N)=O)cc(OC)c2n1C/C=C/Cn1c(NC(=O)c2cc(C)nn2CC)nc2cc(C(N)=O)cc(OCCCN3CCOCC3)c21.O=C(O)C(F)(F)F.O=C(O)C(F)(F)F.O=C(O)C(F)(F)F [Compound A, (E)-1-(4-(5-carbamoyl-2-(1-ethyl-3-methyl-1H-pyrazole-5-carboxamido)-7-(3-morpholinopropoxy)-1H-benzo[d]imidazol-1-yl)but-2-en-1-yl)-2-(1-ethyl-3-methyl-1H-pyrazole-5-carboxamido)-7-methoxy-1H-benzo[d]imidazole-5-carboxamide tris(2,2,2-trifluoroacetate), reference compound]
EC50 ([1]; Homo sapiens, THP1-Dual; free compounds, 24 h, Lucia reporter signal; read-out: EC50): 3 nM
potency relative to other free compound ([1]; free drug): significantly more potent
IL1β in plasma [2, 3]: 1.5 pg/mL
IL12p70 in plasma [2, 3]: 0.2 pg/mL
IL-6 in plasma [2, 3]: 3550 pg/mL
IL-10 in plasma [2, 3]: 0.5 pg/mL
IP10 in plasma [2, 3]: 4780 pg/mL
MCP-1 in plasma [2, 3]: 14500 pg/mL
IFNγ in plasma [2, 4]: 71.8 pg/mL
IL1β in plasma [2, 4]: 0.6 pg/mL
IL12p70 in plasma [2, 4]: 0.2 pg/mL
IL-6 in plasma [2, 4]: 732 pg/mL
IL-10 in plasma [2, 4]: < 3.2 pg/mL
IP10 in plasma [2, 4]: 4980 pg/mL
IFNγ in plasma [2, 5]: < 3.2 pg/mL
IL1β in plasma [2, 5]: 0.3 pg/mL
IL12p70 in plasma [2, 5]: < 3.2 pg/mL
IL-6 in plasma [2, 5]: 16.4 pg/mL
IL-10 in plasma [2, 5]: < 3.2 pg/mL
IP10 in plasma [2, 5]: 890 pg/mL
systemic pro-inflammatory cytokine (IL-6 and TNF) production ([2]; plasma of tumor-bearing mice): induced robust production of IL-6 and TNF
tolerability (Renca cancer cells): less well tolerated
average weight loss after the 2nd dose (Renca cancer cells; q7dx3): 6.2%

— patent publication US20240123079A1 (Seagen Inc., priority 2021, published 2024)
